# Assay results as given in patent US12065442B2, “Tropomyosin receptor kinase (TRK) degradation compounds and methods of use” (Cullgen (Shanghai), Inc., priority 2018, dated 2024).
# Tested on: KM12 cells
# Test: Cell viability assay (CellTiter-Glo) in KM12 cells
# Format: cell-based
# Conditions: Homo sapiens, 72 h; Table 2; KM12 cell viability, CellTiter-Glo, 3 days; read-out: IC50
row,Compound,IC50 [nM]
1,"Cc1ncsc1-c1ccc(CNC(=O)[C@@H]2C[C@@H](O)CN2C(=O)[C@@H](NC(=O)CCCCCCCNC(=O)CN2CCN(c3ccc(C(=O)Nc4n[nH]c5ccc(Cc6cc(F)cc(F)c6)cc45)c(NC4CCOCC4)c3)CC2)C(C)(C)C)cc1 [CPD-061, (2S,4R)-1-((S)-2-(8-(2-(4-(4-((5-(3,5-Difluorobenzyl)-1H-indazol-3-yl)carbamoyl)-3-((tetrahydro-2H-pyran-4-yl)amino)phenyl)piperazin-1-yl)acetamido)octanamido)-3,3-dimethylbutanoyl)-4-hydroxy-N-(4-(4-methylthiazol-5-yl)benzyl)pyrrolidine-2-carboxamide]",> 1000
2,"Cc1ncsc1-c1ccc(CNC(=O)[C@@H]2C[C@@H](O)CN2C(=O)[C@@H](NC(=O)CCOCCOCCC(=O)N2CCN(c3ccc(C(=O)Nc4n[nH]c5ccc(Cc6cc(F)cc(F)c6)cc45)c(NC4CCOCC4)c3)CC2)C(C)(C)C)cc1 [CPD-038, (2S,4R)-1-((S)-2-(3-(2-(3-(4-(4-((5-(3,5-Difluorobenzyl)-1H-indazol-3-yl)carbamoyl)-3-((tetrahydro-2H-pyran-4-yl)amino)phenyl)piperazin-1-yl)-3-oxopropoxy)ethoxy)propanamido)-3,3-dimethylbutanoyl)-4-hydroxy-N-(4-(4-methylthiazol-5-yl)benzyl)pyrrolidine-2-carboxamide]",359
3,"O=C1CCC(N2C(=O)c3cccc(NCCOCCOCCC(=O)N4CCN(c5cccc(-c6cnc7ccc(N8CCC[C@@H]8c8cccc(F)c8)nn67)n5)CC4)c3C2=O)C(=O)N1 (stereo partly drawn) [CPD-028, 2-(2,6-Dioxopiperidin-3-yl)-4-((2-(2-(3-(4-(6-(6-((R)-2-(3-fluorophenyl)pyrrolidin-1-yl)imidazo[1,2-b]pyridazin-3-yl)pyridin-2-yl)piperazin-1-yl)-3-oxopropoxy)ethoxy)ethyl)amino)isoindoline-1,3-dione]",4.3
4,"Cc1ncsc1-c1ccc(CNC(=O)[C@@H]2C[C@@H](O)CN2C(=O)[C@@H](NC(=O)CCCCCCC(=O)N2CCN(c3cccc(-c4cnc5ccc(N6CCC[C@@H]6c6cccc(F)c6)nn45)n3)CC2)C(C)(C)C)cc1 [CPD-029, (2S,4R)-1-((S)-2-(8-(4-(6-(6-((R)-2-(3-Fluorophenyl)pyrrolidin-1-yl)imidazo[1,2-b]pyridazin-3-yl)pyridin-2-yl)piperazin-1-yl)-8-oxooctanamido)-3,3-dimethylbutanoyl)-4-hydroxy-N-(4-(4-methylthiazol-5-yl)benzyl)pyrrolidine-2-carboxamide]",74
5,"Cc1ncsc1-c1ccc(CNC(=O)[C@@H]2C[C@@H](O)CN2C(=O)[C@@H](NC(=O)CCCCCCC(=O)N2CCN(c3ccc(C(=O)Nc4n[nH]c5ccc(Cc6cc(F)cc(F)c6)cc45)c(NC4CCOCC4)c3)CC2)C(C)(C)C)cc1 [CPD-033, (2S,4R)-1-((S)-2-(8-(4-(4-((5-(3,5-difluorobenzyl)-1H-indazol-3-yl)carbamoyl)-3-((tetrahydro-2H-pyran-4-yl)amino)phenyl)piperazin-1-yl)-8-oxooctanamido)-3,3-dimethylbutanoyl)-4-hydroxy-N-(4-(4-methylthiazol-5-yl)benzyl)pyrrolidine-2-carboxamide]",100
6,"Cc1ncsc1-c1ccc(CNC(=O)[C@@H]2C[C@@H](O)CN2C(=O)[C@@H](NC(=O)CCOCCOCCOCCOCCOCCC(=O)N2CCN(c3cccc(-c4cnc5ccc(N6CCC[C@@H]6c6cccc(F)c6)nn45)n3)CC2)C(C)(C)C)cc1 [CPD-005, (2S,4R)-1-((S)-2-(tert-butyl)-22-(4-(6-(6-((R)-2-(3-Fluorophenyl)pyrrolidin-1-yl)imidazo[1,2-b]pyridazin-3-yl)pyridin-2-yl)piperazin-1-yl)-4,22-dioxo-7,10,13,16,19-pentaoxa-3-azadocosanoyl)-4-hydroxy-N-(4-(4-methylthiazol-5-yl)benzyl)pyrrolidine-2-carboxamide]",> 1000
7,"O=C1CCC(N2C(=O)c3cccc(NCCCC(=O)N4CCN(c5cccc(-c6cnc7ccc(N8CCC[C@@H]8c8cccc(F)c8)nn67)n5)CC4)c3C2=O)C(=O)N1 (stereo partly drawn) [CPD-013, 2-(2,6-Dioxopiperidin-3-yl)-4-((4-(4-(6-(6-((R)-2-(3-fluorophenyl)pyrrolidin-1-yl)imidazo[1,2-b]pyridazin-3-yl)pyridin-2-yl)piperazin-1-yl)-4-oxobutyl)amino)isoindoline-1,3-dione]",10.2
8,"Cc1ncsc1-c1ccc(CNC(=O)[C@@H]2C[C@@H](O)CN2C(=O)[C@@H](NC(=O)CCCCCCCC(=O)N2CCN(c3ccc(C(=O)Nc4n[nH]c5ccc(Cc6cc(F)cc(F)c6)cc45)c(NC4CCOCC4)c3)CC2)C(C)(C)C)cc1 [CPD-037, (2S,4R)-1-((S)-2-(9-(4-(4-((5-(3,5-Difluorobenzyl)-1H-indazol-3-yl)carbamoyl)-3-((tetrahydro-2H-pyran-4-yl)amino)phenyl)piperazin-1-yl)-9-oxononanamido)-3,3-dimethylbutanoyl)-4-hydroxy-N-(4-(4-methylthiazol-5-yl)benzyl)pyrrolidine-2-carboxamide]",150

# Same assay, conditions: Homo sapiens, 72 h; Table 3; KM12 cell viability, CellTiter-Glo, 3 days; read-out: IC50
row,Compound,IC50 [nM]
1,O=C1CCC(N2C(=O)c3ccc(NCCCOCCN4CCN(c5cccc(-c6cnc7ccc(N8CCC[C@@H]8c8cccc(F)c8)nn67)n5)CC4)cc3C2=O)C(=O)N1 (stereo partly shown) [TR-199],39.8
2,"O=C(CN1CCN(c2ccc(C(=O)Nc3n[nH]c4ccc(Cc5cc(F)cc(F)c5)cc34)c(NC3CCOCC3)c2)CC1)NCCCCCCNc1cccc2c1C(=O)N(C1CCC(=O)NC1=O)C2=O (stereo not shown) [TR-147, N-(5-(3,5-Difluorobenzyl)-1H-indazol-3-yl)-4-(4-(2-((6-((2-(2,6-dioxopiperidin-3-yl)-1,3-dioxoisoindolin-4-yl)amino)hexyl)amino)-2-oxoethyl)piperazin-1-yl)-2-((tetrahydro-2H-pyran-4-yl)amino)benzamide]",6.4
3,"O=C1CCC(N2C(=O)c3ccc(N4CC(N5CCN(c6cccc(-c7cnc8ccc(N9CCC[C@@H]9c9cccc(F)c9)nn78)n6)CC5)C4)cc3C2=O)C(=O)N1 (stereo partly drawn) [TR-184, 2-(2,6-dioxopiperidin-3-yl)-5-(3-(4-(6-(6-((R)-2-(3-fluorophenyl)pyrrolidin-1-yl)imidazo[1,2-b]pyridazin-3-yl)pyridin-2-yl)piperazin-1-yl)azetidin-1-yl)isoindoline-1,3-dione]",9.3
4,"O=C1CCC(N2Cc3ccc(C#CC(=O)N4CCN(c5cccc(-c6cnc7ccc(N8CCC[C@@H]8c8cccc(F)c8)nn67)n5)CC4)cc3C2=O)C(=O)N1 (stereo partly drawn) [TR-202, 3-(6-(3-(4-(6-(6-((R)-2-(3-fluorophenyl)pyrrolidin-1-yl)imidazo[1,2-b]pyridazin-3-yl)pyridin-2-yl)piperazin-1-yl)-3-oxoprop-1-yn-1-yl)-1-oxoisoindolin-2-yl)piperidine-2,6-dione]",4.3
5,"O=C(CN1CCN(c2cccc(-c3cnc4ccc(N5CCC[C@@H]5c5cccc(F)c5)nn34)n2)CC1)NCCCCNc1ccc2c(c1)C(=O)N(C1CCC(=O)NC1=O)C2=O (stereo partly drawn) [TR-124, N-(4-((2-(2,6-dioxopiperidin-3-yl)-1,3-dioxoisoindolin-5-yl)amino)butyl)-2-(4-(6-(6-((R)-2-(3-fluorophenyl)pyrrolidin-1-yl)imidazo[1,2-b]pyridazin-3-yl)pyridin-2-yl)piperazin-1-yl)acetamide]",2.8
6,"O=C(CN1CCN(c2cccc(-c3cnc4ccc(N5CCC[C@@H]5c5cccc(F)c5)nn34)n2)CC1)NCCOCCOCCOCCOCCNc1cccc2c1C(=O)N(C1CCC(=O)NC1=O)C2=O (stereo partly drawn) [TR-108, N-(14-((2-(2,6-dioxopiperidin-3-yl)-1,3-dioxoisoindolin-4-yl)amino)-3,6,9,12-tetraoxatetradecyl)-2-(4-(6-(6-((R)-2-(3-fluorophenyl)pyrrolidin-1-yl)imidazo[1,2-b]pyridazin-3-yl)pyridin-2-yl)piperazin-1-yl)acetamide]",4
7,"O=C(CN1CCN(c2ccc(C(=O)Nc3n[nH]c4ccc(Cc5cc(F)cc(F)c5)cc34)c(NC3CCOCC3)c2)CC1)NCCCNc1ccc2c(c1)C(=O)N(C1CCC(=O)NC1=O)C2=O (stereo not shown) [TR-167, N-(5-(3,5-Difluorobenzyl)-1H-indazol-3-yl)-4-(4-(2-((3-((2-(2,6-dioxopiperidin-3-yl)-1,3-dioxoisoindolin-5-yl)amino)propyl)amino)-2-oxoethyl)piperazin-1-yl)-2-((tetrahydro-2H-pyran-4-yl)amino)benzamide]",3.3
8,"O=C1CCC(N2C(=O)c3ccc(CCN4CCN(c5cccc(-c6cnc7ccc(N8CCC[C@@H]8c8cccc(F)c8)nn67)n5)CC4)cc3C2=O)C(=O)N1 (stereo partly drawn) [TR-204, 2-(2,6-dioxopiperidin-3-yl)-5-(2-(4-(6-(6-((R)-2-(3-fluorophenyl)pyrrolidin-1-yl)imidazo[1,2-b]pyridazin-3-yl)pyridin-2-yl)piperazin-1-yl)ethyl)isoindoline-1,3-dione]",10.6

# Same assay, conditions: Homo sapiens, 72 h; Table 4; KM12 cell viability, CellTiter-Glo, 3 days; read-out: IC50
row,Compound,IC50 [nM]
1,"Cn1c(=O)n(C2CCC(=O)NC2=O)c2cccc(OCCCN3CCN(c4cccc(-c5cnc6ccc(N7CCC[C@@H]7c7cccc(F)c7)nn56)n4)CC3)c21 (stereo partly drawn) [TR-245, 3-(4-(3-(4-(6-(6-((R)-2-(3-fluorophenyl)pyrrolidin-1-yl)imidazo[1,2-b]pyridazin-3-yl)pyridin-2-yl)piperazin-1-yl)propoxy)-3-methyl-2-oxo-2,3-dihydro-1H-benzo[d]imidazol-1-yl)piperidine-2,6-dione]",> 500
2,"Cn1c(=O)n(C2CCC(=O)NC2=O)c2ccc(NCCN3CCN(c4cccc(-c5cnc6ccc(N7CCC[C@@H]7c7cccc(F)c7)nn56)n4)CC3)cc21 (stereo partly drawn) [TR-220, 3-(5-((2-(4-(6-(6-((R)-2-(3-Fluorophenyl)pyrrolidin-1-yl)imidazo[1,2-b]pyridazin-3-yl)pyridin-2-yl)piperazin-1-yl)ethyl)amino)-3-methyl-2-oxo-2,3-dihydro-1H-benzo[d]imidazol-1-yl)piperidine-2,6-dione]",5.5
3,"O=C1CCC(N2C[C@H](c3cccc(CN4CCN(c5cccc(-c6cnc7ccc(N8CCC[C@@H]8c8cccc(F)c8)nn67)n5)CC4)c3)OC2=O)C(=O)N1 (stereo partly drawn) [TR-235, 3-((S)-5-(3-((4-(6-(6-((R)-2-(3-Fluorophenyl)pyrrolidin-1-yl)imidazo[1,2-b]pyridazin-3-yl)pyridin-2-yl)piperazin-1-yl)methyl)phenyl)-2-oxooxazolidin-3-yl)piperidine-2,6-dione]",3.3
